Experimental data from patent US20250049801A1, “PHARMACEUTICAL COMBINATIONS FOR USE IN THE TREATMENT OF NEOPLASTIC DISEASES” (priority 2021, published 2025).
Marks after values point to notes of the source that are not given here.

What was measured:
[1] = mouse, in vivo
Protocol: Dosing was delayed by 1 day in any mice showing transient body weight loss of ≥ 10% at any time point.
(§1) Body weights and tumor volumes were determined at least twice per week, the latter by measuring two dimensions with calipers and applying the formula “V=(L×W2)/2”, where V is the tumor volume, and L and W are the tumor length and width respectively. […] Mice were also culled if the BWL was determined to be >15% for 3 consecutive days. Any mice with >10% BWL, automatically were dosed on one of the following days, as soon as the BWL returned to <10%. All animal protocols were reviewed and approved by the relevant local committees in China, where the studies were performed.

other kinase = test: Kinase specificity, other kinases versus TTK; format: biochemical
biotinylated PLK1 = target: T1, biotinylated PLK1 (Homo sapiens, UniProt P53350); test: Target residence time assay (Biacore T200 surface plasmon resonance), PLK1; format: binding; settings: SPR, 22° C.
T1 construct: biotin (biotinylated)
T1 sequence (P53350 whole entry): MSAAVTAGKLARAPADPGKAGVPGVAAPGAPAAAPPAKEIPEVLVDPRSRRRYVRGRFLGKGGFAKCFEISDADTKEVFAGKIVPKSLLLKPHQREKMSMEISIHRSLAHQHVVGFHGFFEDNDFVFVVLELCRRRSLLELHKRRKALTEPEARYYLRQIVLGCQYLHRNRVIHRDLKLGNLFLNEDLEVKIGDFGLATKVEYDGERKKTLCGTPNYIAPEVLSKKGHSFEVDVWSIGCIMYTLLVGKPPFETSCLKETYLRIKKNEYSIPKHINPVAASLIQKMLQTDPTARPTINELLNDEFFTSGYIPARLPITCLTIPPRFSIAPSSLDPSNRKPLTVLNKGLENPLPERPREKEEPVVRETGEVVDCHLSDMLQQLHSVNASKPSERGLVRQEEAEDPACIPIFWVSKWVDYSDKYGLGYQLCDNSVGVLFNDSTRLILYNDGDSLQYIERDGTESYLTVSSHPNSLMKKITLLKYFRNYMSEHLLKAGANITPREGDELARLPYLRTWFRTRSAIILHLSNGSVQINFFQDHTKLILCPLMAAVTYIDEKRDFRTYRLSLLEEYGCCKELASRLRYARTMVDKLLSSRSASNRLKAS
Protocol: (§2) The affinity, i.e. the equilibrium dissociation constant (KD) (referred to as residence times), of the compound of formula (I) against TTK and PLK1 were determined using a Biacore T200™ surface plasmon resonance instrument using recombinant expressed TTK kinase domain (amino acids 519-808) or biotinylated PLK1. The immobilization of TTK was performed as described in Maia et al. Annals of Oncology, 2015; 26:2180-2192. The immobilization of biotinylated PLK1 was performed as described in Willemsen-Seegers et al. Journal of Molecular Biology, 2017; 429:574-586. The subsequent single cycle kinetic assays were performed at 22° C. using a compound concentration gradient of 1, 3.6, 10, 31.6 and 100 nM for TTK and 10, 31.6, 100, 316 and 1000 nM for PLK1, a contact time of 100 s and a flow rate of […]. The dissociation period was 1200-1800 s and a correction for an unstable surface using a blank run with buffer was performed.

[2] = tested on: triple negative breast cancer cell lines; test: 5-day anti-proliferative screen of 18 triple negative breast cancer cell lines; format: cell-based; settings: 120 h, 18 different triple negative breast cancer cell lines, read-out: median GI50
Excerpt: (§3) In cellular systems, the compound of formula (I) has high potency against sensitive cells.

TTK [3] = target: T2, TTK (Homo sapiens, UniProt P33981); test: TTK kinase assay as described in WO 2015/155042; format: biochemical; settings: when measured as described in WO 2015/155042
T2 construct: TTK and PLK1 protein kinases were expressed as recombinant full-length GST-fusion proteins; GST
T2 sequence (P33981 1-857): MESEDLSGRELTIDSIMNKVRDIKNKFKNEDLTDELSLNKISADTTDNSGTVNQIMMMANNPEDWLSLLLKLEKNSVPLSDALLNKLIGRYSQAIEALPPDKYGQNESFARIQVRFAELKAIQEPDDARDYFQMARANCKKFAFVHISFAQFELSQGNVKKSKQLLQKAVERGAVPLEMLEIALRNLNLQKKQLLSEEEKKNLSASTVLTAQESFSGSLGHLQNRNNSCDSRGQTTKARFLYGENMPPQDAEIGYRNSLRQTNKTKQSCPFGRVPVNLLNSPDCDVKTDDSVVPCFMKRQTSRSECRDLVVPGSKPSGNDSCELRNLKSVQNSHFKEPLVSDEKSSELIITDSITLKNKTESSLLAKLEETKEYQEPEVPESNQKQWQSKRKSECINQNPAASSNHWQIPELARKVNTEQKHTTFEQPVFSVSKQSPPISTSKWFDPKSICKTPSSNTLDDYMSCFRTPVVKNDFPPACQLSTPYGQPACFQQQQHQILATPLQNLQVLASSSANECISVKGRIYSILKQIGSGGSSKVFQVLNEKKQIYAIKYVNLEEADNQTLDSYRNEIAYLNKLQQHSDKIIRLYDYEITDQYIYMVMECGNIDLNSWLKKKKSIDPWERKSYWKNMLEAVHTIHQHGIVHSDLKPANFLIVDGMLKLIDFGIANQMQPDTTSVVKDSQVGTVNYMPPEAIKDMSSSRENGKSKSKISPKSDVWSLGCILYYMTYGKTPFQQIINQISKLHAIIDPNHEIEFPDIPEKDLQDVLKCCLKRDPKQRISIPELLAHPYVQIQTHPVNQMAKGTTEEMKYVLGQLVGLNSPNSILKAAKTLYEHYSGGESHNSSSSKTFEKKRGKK

PLK1 [4] = target: T3, PLK1 (Homo sapiens, UniProt P53350); test: PLK1 kinase assay as described in WO 2015/155042; format: biochemical; settings: when measured as described in WO 2015/155042
T3 sequence (P53350 whole entry, the tested form may be a part): as the sequence (P53350 whole entry) above

[5] = target: T4, TTK kinase domain (amino acids 519-808) (Homo sapiens, UniProt P33981); test: Target residence time assay (Biacore T200 surface plasmon resonance), TTK; format: binding; settings: SPR, 22° C.
T4 construct: recombinant expressed TTK kinase domain (amino acids 519-808)
T4 sequence (P33981 519-808): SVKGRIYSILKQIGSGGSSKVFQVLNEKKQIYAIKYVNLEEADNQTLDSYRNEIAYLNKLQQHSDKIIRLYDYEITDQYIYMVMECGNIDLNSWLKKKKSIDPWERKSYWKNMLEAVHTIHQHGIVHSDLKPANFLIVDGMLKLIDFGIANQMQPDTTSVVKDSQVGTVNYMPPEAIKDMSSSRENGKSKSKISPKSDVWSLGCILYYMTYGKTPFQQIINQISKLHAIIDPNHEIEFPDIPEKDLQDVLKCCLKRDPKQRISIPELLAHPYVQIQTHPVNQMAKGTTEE
Protocol: as §2

TNBC BR1282 PDX model = test: Second PDX study, efficacy; format: in vivo, BALB/c nude mice; settings: for Efficacy: ΔT/C Day 13: mean change in tumor volume on day 13; for Efficacy: ΔT/C Day 0 up to day 51: mean rate of growth (k), day 0 to culling day or day 51; for Cures By day 148: no tumors detectable by pathological confirmation at end of observation period, 8 mice per group
Protocol: (§4) The compound of formula (I) was supplied as a powder by Basilea Pharmaceutica International Ltd. and was prepared freshly as a solution in Ethanol: PEG400:Citric acid 20 mM, at a ratio of 1:1:8, for immediate administration.
(§5) The statistical significance of efficacy were determined in two different ways using a) the endpoint on day 16 or day 13 depending on the study when it was necessary to cull the vehicle group because of tumor volume exceeding 1500 mm3, and b) at the endpoint of day 42 or day 51 depending on the study (one week after the final treatment) when exponential curve fits were applied to estimate the rates of tumor growth in the different groups. Finally, the number of complete cures was compared across the groups following confirmation by histopathology within the first study. The degree of an effect was quantified by the delta (Δ) treated/control ratio (ΔT/C) and the statistical significance of the effect was determined by a one-way analysis of variance (1W-ANOVA) with Holms-Sidak applied post-hoc for multiple determinations, where a p-value of <0.05 was considered statistically significant. In addition, an assessment of synergy was made based upon the Clarkes Combination Index (CCI), where the CCI=ΔT/CAB−(ΔT/CA*ΔT/CB) in which A and B are two different compounds, where CCI<−0.1 indicates synergy (or a positive interaction), +0.1 (antagonism, or a negative interaction) and between −0.1 and +0.1 indicates additivity (no interaction); see O'Reilly et al. Anti Cancer Drugs 2011; 22:58-78.

[6] = tested on: patient-derived tumor xenografts, including TNBC and hepatocellular cancer (HCC) models; test: Patient-derived tumor xenografts in mice (data not shown); format: in vivo
Excerpt: as §3

[7] = for Tolerability (Day 16) ΔBW (%) / Tolerability (Day 16) ΔT/C: mouse, in vivo
Protocol: In a first PDX study female BALB/c nude mice (CrownBio) of at least 20 g body weight were subcutaneously (s.c.) inoculated in the right flank with tumor fragments (3*3*3 mm) from stock mice bearing the patient-derived xenograft (PDX) triple negative breast cancer (TNBC) tumor, BR1282. Randomization into 5 different treatment groups (8 mice per group) was made when the mean tumor size was 150-200 mm3. […] The fifth group received both vehicles using the time interval of 4 h and all groups were dosed twice via the tail vein. Dosing was delayed by 1 day in any mice showing transient body weight loss of ≥ 10% at any time point.
as §1

[8] = Single-dose pharmacokinetic drug-drug interaction experiment; format: in vivo; settings: 8 mg/kg i.v., 1 h after paclitaxel (15 mg/kg, i.v.); non tumor-bearing mice
PLK1 [9] = target: T3, PLK1; test: Radiometric protein kinase assay (33PanQinase Activity Assay), PLK1; format: biochemical; settings: radiometric 33PanQinase assay; ATP 1 mM
Protocol: (§6) A radiometric protein kinase assay (33PanQinase® Activity Assay) was used for measuring the kinase activity of TTK and PLK1. TTK and PLK1 protein kinases were expressed as recombinant full-length GST-fusion proteins. The reaction cocktail contained […] of enzyme/substrate mixture. The assay for the protein kinases contained 70 mM HEPES-NaOH pH 7.5, 3 mM MgCl2, 3 mM MnCl2, 3 mM Na-orthovanadate, 1.2 mM DTT, […] PEG20000, ATP (0.3 mM for TTK and 1 mM for PLK1), [γ-33P]-ATP (approx. 8×10^5 cpm per well), protein kinase (15.8 nM for TTK and 5 nM for PLK1), and substrate (1 mg/50 mL for TTK and 2 mg/50 mL for PLK1). All assays were performed with a Beckman-Coulter/SAGIAN™ Core System. The fitting model for the IC50 determinations was “Sigmoidal response (variable slope)” with parameters “top” fixed at 100% and “bottom” at 0%. The fitting method used was a least squares fit.

tumor-derived TTK = target: T5, tumor-derived TTK (Homo sapiens, UniProt P33981); test: Tumor TTK target occupancy in MDA-MB-231 xenograft-bearing mice; format: in vivo
T5 construct: from tissue; host or cells: MDA-MB-231 xenograft tumours from mice
T5 sequence (P33981 1-857): T2 sequence (P33981 1-857)
Protocol: Prolonged TTK target occupancy was also measured in tumors derived from MDAMB-231 xenograft-bearing mice treated with intermittent i.v. dosing regimen of compound of formula (I). […]

TTK [10] = target: T2, TTK; test: Radiometric protein kinase assay (33PanQinase Activity Assay), TTK; format: biochemical; settings: radiometric 33PanQinase assay; ATP 0.3 mM
Protocol: as §6

[11] = tested on: patient-derived xenograft (PDX) triple negative breast cancer (TNBC) tumor, BR1282; test: First PDX study, efficacy; format: in vivo, BALB/c nude mice; settings: for Efficacy: ΔT/C Day 16: mean change in tumor volume on day 16; for Efficacy: ΔT/C Day −0 up to Day 42: mean rate of growth (k), exponential curve fits, day 0 to culling day or day 42; for Cures Day 97: no tumors detectable by H&E staining of skin on day 97, N=8 mice/group
Protocol: as §4, §5

| Compound | Tolerability (Day 13) ΔBW (%) [1] | Tolerability (Day 13) ΔT/C [1] | Efficacy: ΔT/C Day 13 (TNBC BR1282 PDX model) | Efficacy: ΔT/C Day 0 up to day 51 (TNBC BR1282 PDX model) | Cures By day 148 (TNBC BR1282 PDX model) | Tolerability (Day 16) ΔBW (%) [7] | Tolerability (Day 16) ΔT/C [7] | Efficacy: ΔT/C Day 16 [11] | Efficacy: ΔT/C Day −0 up to Day 42 [11] | Cures Day 97 [11] | also measured |
| --- | --- | --- | --- | --- | --- | --- | --- | --- | --- | --- | --- |
| COc1cc(N2CCNCC2)ccc1Nc1ncc2c(n1)-n1ccc(C(=O)Nc3c(C)cccc3C)c1CC2 [Compound of formula (I)] | −1.9 ± 1.4% | 0.93 | 0.32 | −0.02*** | 0/8 | −0.3 ± 1.4% | 1.01 | 0.45 | 0.28*** | 0/8 | other kinase IC50s higher than those for TTK (other kinase): at least 10 fold; target-residency on PLK1 (biotinylated PLK1): a few minutes; GI50 [2]: 35 nM; IC50 (TTK [3]): 0.4 nM; IC50 (PLK1 [4]): 46 nM; target-residency on TTK [5]: > 12 h; animals indicating regression (TNBC BR1282 PDX model; day 51): 3/8; activity against patient-derived tumor xenografts [6]: significant activity; mortality ([7]; day 21, considered non-drug-related): one mouse died; change in plasma AUC of the compound of formula (I) [8]: slight nonsignificant increase; IC50 (PLK1 [9]): 72 nM; time TTK completely occupied after last dose (tumor-derived TTK; i.v. twice-weekly, MTD dose): at least 72 h; time tumor-derived TTK fully drug-occupied after last administration (tumor-derived TTK; i.v. weekly MTD dosing): up to 6 days; IC50 (TTK [10]): 7 nM |
| CC(=O)O[C@H]1C(=O)[C@@]2(C)[C@H]([C@H](OC(=O)c3ccccc3)[C@]3(O)C[C@H](OC(=O)[C@H](O)[C@@H](NC(=O)c4ccccc4)c4ccccc4)C(C)=C1C3(C)C)[C@]1(OC(C)=O)CO[C@@H]1C[C@@H]2O [Paclitaxel, reference compound] | 4.9 ± 0.3% | 1.02 | 0.48 | 0.63*** | 0/8 | −1.0 ± 1.2% | 1.00 | 0.24 | 0.41*** | 0/8 |  |
